The test system of assay [1] is human prostate (PC3), colon (Caco-2) and hepatocyte (Hep G2) carcinomas. Also noted: method as in PMID 29763615. As to conditions: all three tumor cell lines PC3, Caco-2, Hep G2; cited from earlier work.
Assay [2] concerns the target T1, human A3AR (Homo sapiens, UniProt P0DMS8).
T1 sequence (P0DMS8 1-318): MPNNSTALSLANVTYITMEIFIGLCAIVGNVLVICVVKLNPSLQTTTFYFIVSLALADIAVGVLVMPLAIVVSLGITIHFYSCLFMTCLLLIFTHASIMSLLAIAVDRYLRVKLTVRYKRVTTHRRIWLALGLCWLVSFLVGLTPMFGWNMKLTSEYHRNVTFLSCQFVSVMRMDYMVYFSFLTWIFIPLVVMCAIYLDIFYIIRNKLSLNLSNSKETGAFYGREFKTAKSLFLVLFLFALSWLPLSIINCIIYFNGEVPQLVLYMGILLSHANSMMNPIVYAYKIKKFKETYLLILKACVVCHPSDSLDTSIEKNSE
On the set-up: expressed in transfected cells; host or cells: CHO cells stably expressing A3AR and the GloSensor biosensor plasmid; method as in PMID 29763615, PMID 19839592. As to conditions: cited from earlier work.

The target in assay [3] is T1, human A3AR. The experiment in a line: Radioligand binding assay, displacement of [3H]HEMADO in CHO cell membranes. As to conditions: ratio of Ki values; for A1/A3: A3AR selectivity vs A1AR; for A2A/A3: A3AR selectivity vs A2AAR. As to the method: In the case of A2BAR, the potency of selected compounds was determined through a functional GloSensor cAMP assay.
All pharmacological methods followed the procedures as described earlier. In brief, membranes for radioligand binding were prepared from CHO cells stably transfected with human adenosine receptor subtypes through two centrifugations at different speeds. The first low-speed (1000 g) centrifugation allowed the removing of cell fragments and nuclei, while the second, performed at high speed (100,000 g), allowed the precipitation of the crude membrane fractions.
The binding affinity of the novel compounds was evaluated using radioligand competition experiments in CHO cells stably expressing hA1AR, hA2AAR, and hA3AR subtypes. […] Results were expressed as Ki values (dissociation constants), which were calculated with the program GraphPad (GraphPAD Software, San Diego, CA, USA). Each concentration was tested three–five times in duplicate and the values are given as the mean ± standard error (S.E.).
A general note: Displacement assays read how much labelled ligand stays bound in the presence of the test substance.

The target of the next assay is T2, human recombinant A1AR (Homo sapiens, UniProt P30542).
T2 sequence (P30542 1-326): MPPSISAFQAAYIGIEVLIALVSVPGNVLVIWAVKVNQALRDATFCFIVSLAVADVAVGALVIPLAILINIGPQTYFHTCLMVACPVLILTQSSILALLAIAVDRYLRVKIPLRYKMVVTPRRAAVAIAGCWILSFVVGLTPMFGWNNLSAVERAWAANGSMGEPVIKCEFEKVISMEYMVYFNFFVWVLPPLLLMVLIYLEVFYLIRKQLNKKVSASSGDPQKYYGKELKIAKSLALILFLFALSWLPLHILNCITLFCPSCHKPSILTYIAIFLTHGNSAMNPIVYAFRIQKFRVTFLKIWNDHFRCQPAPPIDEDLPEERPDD
The note with it: [3H]CCPA, CHO membranes; read-out: hA1R (Ki nM); cited from earlier work.

The target in the next assay is human recombinant A2AAR (Homo sapiens, UniProt P29274). The note with it: [3H]NECA, CHO membranes; read-out: hA2AR (Ki nM); cited from earlier work.
Chain of human recombinant A2AAR (P29274 whole entry): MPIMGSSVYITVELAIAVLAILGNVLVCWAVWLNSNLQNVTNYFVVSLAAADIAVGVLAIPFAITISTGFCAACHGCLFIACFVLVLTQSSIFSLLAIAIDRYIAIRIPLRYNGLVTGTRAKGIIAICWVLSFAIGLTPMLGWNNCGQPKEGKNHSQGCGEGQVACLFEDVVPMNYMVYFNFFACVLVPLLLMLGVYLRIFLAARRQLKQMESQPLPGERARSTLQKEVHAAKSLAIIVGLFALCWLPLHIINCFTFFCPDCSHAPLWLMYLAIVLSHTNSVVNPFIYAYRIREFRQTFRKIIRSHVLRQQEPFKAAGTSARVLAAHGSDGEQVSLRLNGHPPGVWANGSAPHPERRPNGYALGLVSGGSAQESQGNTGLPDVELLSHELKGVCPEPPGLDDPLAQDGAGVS
In assay [4] the target is T1, human A3AR. As to conditions: cited from earlier work.
In assay [5] the test system is PC3 prostate cancer cell line. In words: Sulforhodamine B (SRB) cell growth inhibition assay. The note with it: for GI50 / CC50 / IC100: Homo sapiens, 48 h; for CC50: read-out: LC50 (μM); for IC100: read-out: TGI (μM); for TGI: PC3, 48 h, concentration to inhibit 100% of cell growth, mean ± SD.
Assay [6] addresses T1, human A3AR. The experiment in a line: GloSensor cAMP accumulation assay (agonism/antagonism) at A3AR in CHO cells. In kind it is cell-based. Also noted: expressed in transfected cells; host or cells: CHO cells stably expressing A3AR and the GloSensor biosensor plasmid. On the procedure: CHO cells stable expressing A2B or A3ARs and the plasmid encoding the biosensor were used to study functional agonism and antagonism of understudy ligands. The desired cell number was incubated in equilibration medium containing a 3% v/v GloSensor cAMP reagent stock solution, 10% FBS and 87% of CO2 independent media. After 2 h of incubation, cells were dispensed in wells of 384 well plate and when a steady-state basal signal was obtained the agonism profile was studied, adding to wells the reference agonist NECA or compounds at different concentrations. In the case of the Gi coupled receptor A3AR Forskolin (FSK) 10 μM was added 10 min after the agonists and various luminescence readings were performed at different incubation times.
The antagonist profile of the compounds was evaluated by assessing their ability to counteract an agonist-induced increase or decrease (A2B and A3ARs, respectively) of cAMP accumulation. The cells were incubated with different antagonist concentrations and then treated with a fixed dose of NECA (10 μM for A2BAR and 1 μM for A3AR). FSK 10 μM was added 10 min after the agonists and various luminescence reads were performed at different incubation times.
Responses were expressed as percentage of the maximal relative luminescence units (RLU) and concentration–response curves were fitted by a nonlinear regression with the Prism program (GraphPAD Software, San Diego, CA, USA). The agonist or antagonist profile of compounds was expressed as EC50 or IC50, respectively. Each concentration was tested three–five times in duplicate and the values are given as the mean ± S.E.

Where [7] appears, read: A3AR affinity repeated in Table 2, read-out: A3AR.
Where [8] appears, read: [3H]HEMADO, CHO membranes, read-out: hA3R (Ki nM).

Where two headings read alike, the source gives them in different places. Some results are limits rather than exact numbers.

What is called GI50 is the concentration giving 50% growth inhibition. Lower therefore signals more potent growth inhibition. As a reminder, the TGI is the concentration at which net growth stops. A high value points to lower sensitivity of the cells. The IC50 is the midpoint of a concentration-inhibition curve. Low values mean greater potency, high ones weaker potency.

Regarding `CNC(=O)[C@H]1O[C@@H](n2cnc3c(NC)nc(C#Cc4ccccc4)nc32)[C@H](O)[C@@H]1O` [Compound 3, N^6-methyl-2-phenylethynyladenosine-5′-N-methyluronamide, reference compound], the “anticancer effect (cell growth inhibition)” value in assay [1] is “almost inactive”. Also, the “functional behaviour at A3AR” value on human A3AR [2] is given as “full A3AR agonist”.

Take `CCCCC#Cc1nc(NCC(c2ccccc2)c2ccccc2)c2ncn([C@@H]3O[C@H](CO)[C@@H](O)[C@H]3O)c2n1` [Compound 4, 2-Hexynyl-N^6-(2,2-diphenylethyl)adenosine]: on human A3AR [3], the A1/A3 was determined as 36 fold and the A2A/A3 is given as 6 fold. In addition, on human recombinant A1AR, the Ki was 984 nM. Moreover, the Ki at human recombinant A2AAR was 153 nM. On human A3AR [4] (setting [7]), the Ki was 27 nM. The Ki on human A3AR [4] (setting [8]) is 27 nM. The “anticancer effect (cell growth inhibition)” value in assay [1] was “very good antitumor activity”. Moreover, in assay [5], halving of growth (GI50) required 16 ± 0.5 µM, the CC50 is 80 ± 9.8 µM, the IC100 was found to be 35 µM and the total growth inhibition concentration (TGI) was 35 ± 1.5 µM. Moreover, the IC50 on human A3AR [6] (antagonism: counteracting agonist (NECA 1 μM) induced decrease of cAMP, forskolin 10 μM, mean ± S.E.) came to 0.38 ± 0.08 µM. Moreover, the “functional behaviour at A3AR (agonist/antagonist)” value on human A3AR [6] (forskolin 10 µM stimulated cAMP, compared to Cl-IB-MECA) is listed as “antagonists”.

Take `OC[C@H]1O[C@@H](n2cnc3c(NCCc4ccccc4)nc(NCCc4ccccc4)nc32)[C@H](O)[C@@H]1O` [Compound 5, 2-Phenylethylamino-N^6-(2-phenylethyl)adenosine]: on human A3AR [3], the A1/A3 was 1082 fold and the A2A/A3 turned out to be 4145 fold. The Ki on human recombinant A1AR was 357 nM. Besides, at human recombinant A2AAR, the Ki is 1370 nM. The Ki at human A3AR [4] (setting [7]) was 0.33 nM. Further, the Ki at human A3AR [4] (setting [8]) was 0.33 nM. In assay [1], the “anticancer effect (cell growth inhibition)” value is recorded as “very good antitumor activity”. For the same molecule, in assay [5], the concentration for 50% growth inhibition (GI50) stood at 237 ± 9.4 µM, the CC50 was above 500 µM, the IC100 was above 500 µM and the “TGI” value was above 500 µM.

(Values after paper PMC8879107, “A3 Adenosine Receptor Antagonists with Nucleoside Structures and Their Anticancer Activity” (Pharmaceuticals, 2022).)
